Experimental data as given in publication PMC8778681, “Crystal Structure, Solubility, and Pharmacokinetic Study on a Hesperetin Cocrystal with Piperine as Coformer” (Pharmaceutics, 2022).
Converted amounts (≈) assume the structure as drawn.

Tests used:
[1] = Bioavailability / pharmacokinetics after oral gavage in rats; assay type: in vivo; conditions: Sprague-Dawley, 80 mg/kg, HES in rat plasma, equivalent to 80 mg HES/kg
Procedure: Eighteen Sprague–Dawley rats weighing 220–250 g were randomly divided into three groups (n = 6), fasted for 12 h but freely given water before the experiment. The HES, the physical mixture of HES and PIP, and the HES–PIP cocrystal were delivered by gavage at a dose equivalent to 80 mg of the HES/kg body weight of the animal as a suspension in water. Next, 500 µL blood was withdrawn and placed in a centrifuge tube with heparin from the eye sockets of rats at 0.25 h, 0.5 h, 1 h, 2 h, 4 h, 6 h, 8 h, 12 h, 24 h, and 48 h after oral administration. The plasma was separated by centrifugation (4000 rpm, 15 min) and saved at −80 °C until analysis. Next, 100 µL of plasma sample was added into 400 μL of methanol and vortexed for 5 min to fully precipitate the protein [44], then centrifuged at 10,000 rpm for 10 min. The supernatant was then transferred to another tube and evaporated to remove the solvent under a stream of nitrogen. The residual solid was then dissolved in methanol with vortex oscillation for 3 min, and the mixture was centrifuged at 10,000 rpm for 10 min. Finally, the supernatant was analyzed via HPLC method for HES content. PK parameters were obtained on the basis of a model-independent method using DAS 2 program.

[2] = Solubility experiment in simulated gastrointestinal fluid; assay type: physicochemical; conditions: thermodynamic from solid, 100 rpm
Procedure: The solubility of the HES–PIP cocrystal in simulated gastrointestinal fluid was measured in the present study following the method described in the literature but slightly modified. The samples were previously milled and sieved (75–150 μm) before examination to reduce the effect of the crystal’s size on its solubility behavior. A specific amount (containing 25 mg of HES) of the HES–PIP cocrystal was weighed and added into a centrifuge tube containing 5 mL dissolving medium, and the suspension was incubated at 37 ± 0.2 °C rotating at 100 rpm. Taking a tube at 0.25 h, 0.5 h, 1 h, 2 h, 4 h, 6 h, 8 h, 12 h, 24 h, and 48 h, the samples were centrifuged at 12,000 rpm for 5 min, and the supernatant was diluted with methanol and analyzed by HPLC. The cocrystal’s solubility at different times was compared with that of raw HES. […] The residual solid in each tube was also analyzed by PXRD.
The cocrystal’s supersaturation factor (SF) was calculated through the drug supersaturation–time curve following the method presented in a previous study, and the calculation formula is as follows:(1) SF=AUC0.25−48 h(Cocrystal)/AUC0.25−48 h(Hesperetin) where SF is the supersaturation factor, AUC0.25–48 h (Cocrystal) is the area under the curve of the cocrystal supersaturation–time profile, and AUC0.25–48 h (Hesperetin) is the area under the curve for a saturated solution.

Structure (SMILES): COc1ccc([C@@H]2CC(=O)c3c(O)cc(O)cc3O2)cc1O [HES, ((S)-2,3-dihydro-5,7-dihydroxy-2-(3-hydroxy-4 methoxy-phenyl)-4H-1-benzopyran-4-one)]
- AUC(0-t) ([1]; n = 6): 530 ng·h/mL
- Tmax ([1]; n = 6): 0.5 h
- half-life ([1]; n = 6): 3.01 h
- MRT last ([1]; n = 6, read-out: MRT(0–t)): 5.86 h
- Cmax ([1]; suspension in water, n = 6): 120 ng/mL
- solubility ([2]; fassgf or other biorelevant, simulated gastrointestinal fluid pH 6.8, 37 °C, HES–PIP maximum at 6 h): 21.1 µg/mL (≈ 69.9 µM)
- solubility ([2]; simulated gastric fluid, simulated gastrointestinal fluid pH 1.2, 37 °C, HES–PIP maximum at 8 h): 23.1 µg/mL (≈ 76.5 µM)
